This passage reports IC50 and Ki results from patent US20080009623A1, “Pyrimidine compounds” (Eisai R&D Management Co., Ltd., priority 2006, published 2008).

The Ki is a measure of affinity in units of concentration, obtained from inhibition or displacement.

The target of assay [1] is T1, Human adenosine A2B receptor (Homo sapiens, UniProt P29275).
T1 construct: expressed in transfected cells; host or cells: CHOK1 cells
T1 sequence (P29275 1-332): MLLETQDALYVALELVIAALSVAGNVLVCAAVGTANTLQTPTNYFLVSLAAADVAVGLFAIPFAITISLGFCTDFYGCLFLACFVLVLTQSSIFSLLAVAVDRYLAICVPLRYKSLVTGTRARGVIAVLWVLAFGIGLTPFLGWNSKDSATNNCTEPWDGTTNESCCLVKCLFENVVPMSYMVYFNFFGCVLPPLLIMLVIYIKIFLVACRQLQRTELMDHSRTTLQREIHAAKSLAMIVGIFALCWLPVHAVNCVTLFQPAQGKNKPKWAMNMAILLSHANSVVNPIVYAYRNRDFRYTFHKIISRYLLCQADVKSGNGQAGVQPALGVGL
Description: Inhibition of NECA-stimulated cAMP production in A2B receptor expressed cells. The assay is classed as cell-based. The conditions noted are these: CHOK1 cells over-expressing human A2B; 30 nM NECA; in the presence of Ro-20-1724; cAMP enzyme immunoassay; read-out: 50% inhibitory concentration (IC50) for NECA-stimulated cAMP production. Here is the method: Human adenosine A2B receptor was over-expressed in CHOK1 cells. The cells were uniformly placed on a 24-well plate at the rate of 1.5×10^5 cells/well, incubated for one night and then used for the experiments. The inhibition rate of the compound of the present invention for the amount of cAMP produced by stimulation of 30 nM of 5′-N-ethylcarboxyamideadenosine (NECA; manufactured by Sigma corporation) was evaluated as affinity of the compound of the present invention to the A2B receptor. Thus, after washing adherent cells with 2 mL/well of a Krebs-Ringer buffer (containing 0.1 % BSA; pH7.4) twice, a pre-incubation was carried out at 0.5 mL/well for 30 minutes. After that, […] of a mixed solution containing NECA and the compound of the present invention were added in the presence of Ro-20-1724 (manufactured by RBI corporation) which is a phosphodiesterase inhibitor. 15 minutes after pre-incubation, the reaction was stopped by adding 0.1N HCl to the reaction solution. Measurement of cAMP was carried out using a cAMP enzyme immunoassay kit manufactured by Amersham corporation. Calculation of the inhibition rate of the compound of the present invention to the NECA-stimulated cAMP production was carried out by the following expression. […]

The target in assay [2] is T2, Human adenosine A1 receptor (Homo sapiens, UniProt P30542).
T2 construct: expressed in transfected cells; host or cells: CHOK1 cells (membrane specimen)
T2 sequence (P30542 1-326): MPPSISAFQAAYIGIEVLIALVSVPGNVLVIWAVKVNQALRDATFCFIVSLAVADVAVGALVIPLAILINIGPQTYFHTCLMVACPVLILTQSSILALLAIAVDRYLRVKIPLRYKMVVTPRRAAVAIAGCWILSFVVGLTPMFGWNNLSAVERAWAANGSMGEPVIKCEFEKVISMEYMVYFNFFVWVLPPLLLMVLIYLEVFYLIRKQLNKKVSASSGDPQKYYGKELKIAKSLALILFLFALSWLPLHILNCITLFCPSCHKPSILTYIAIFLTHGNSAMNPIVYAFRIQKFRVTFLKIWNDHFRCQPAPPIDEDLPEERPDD
The assay is described as follows: Adenosine A1 receptor binding experiment (3H-CCPA displacement, CHOK1 membrane specimen). The conditions noted are these: calculated from IC50 by Cheng-Prusoff's expression; 3H-CCPA binding, membranes of CHOK1 cells over-expressing human A1, 30° C., 120 minutes; read-out: inhibition constant (Ki value). The method, then: Human adenosine A1 receptor cDNA was subjected to an over-expression in CHOK1 cells and its membrane specimen was suspended in a 20 mM HEPES buffer (containing 10 mM MgCl2 and 100 mM NaCl; pH 7.4) to make the protein concentration of 66.7 μg/mL. To 0.45 mL of this membrane specimen suspension were added 0.025 mL of tritium-labeled 60 nM chlorocyclopentyl adenosine (^3H-CCPA, manufactured by NEN corporation) and 0.025 mL of a solution of the compound of the present invention. The mixture was allowed to stand at 30° C. for 120 minutes, subjected to a quick suction on a glass fiber filter (GF/B; manufactured by Whatman) and immediately washed with 5 mL of water-cooled 50 mM Tris-HCl buffer twice. After that, the glass fiber filter was transferred to a vial bottle, a scintillator was added, and the radioactivity on the filter was measured by a liquid scintillation counter. […]
At this point, total binding amount is a ^3H-CCPA binding radioactivity in the absence of the compound of the present invention, non-specific binding amount is a ^3H -CCPA binding radioactivity in the presence of 100 μM of RPIA ([R]-[1-methyl-2-phenylethyl]adenosine), and binding amount in the presence of the compound of the present invention is a ^3H-CCPA binding radioactivity in the presence of the compound of the present invention of various concentrations.

On to `Cn1cc(-c2c(O)nc(N)nc2-c2ccco2)ccc1=O` [the compound of the present invention, 5-[2-amino-4-(2-furyl)-6-hydroxypyrimidin-5-yl]-1-methylpyridin-2(1H)-one], for which, in assay [1], the IC50 was 72.7 nM. For the same compound, the Ki in assay [2] is 157 nM.
